Data as given in patent publication US20210046109A1, “Suppressive Exosomes in Cancer and for Immunosuppression” (The Regents of the University of California, priority 2018, published 2021).
Peptide text beside a SMILES is read from it. * marks the point of attachment. Cbz = O=C(OCc1ccccc1)*

Key:
[1] = system: PC3 and SK-MEL-28 cells; assay: Lysosome / proteasome inhibition, western analysis of PD-L1 protein levels; type: cell-based; conditions: for PD-L1 protein levels: both lines
Description: Next, potential differences in protein degradation were evaluated. The two main pathways for protein degradation are the lysosome and the proteasome. The small molecule Bafalomycin A1 (BafA1) inhibits lysosomal activity by blocking the V-ATPase hydrogen pump and thus acidification of the lysosome. An increase in the protein LC3B, a known target of the lysosome, confirmed effectiveness of the small molecule on PC3 and SK-MEL-28 cells. However, levels of PD-L1 in both lines were unaltered, implying little turnover of PD-L1 by the lysosome in these cells. The small molecule MG132 suppresses proteasome activity by blocking the 26s proteasome complex and consequentially proteolysis. The proteasome recognizes ubiquitin side chains on its targets. An increase in the presence of ubiquitinated proteins confirmed the effectiveness of MG132 on the two cells lines.

[2] = system: cancer cells; assay: IFNγ treatment of cancer cells, PD-L1 in cellular and 100 k g fractions and vesicle number; type: cell-based
From the text: In vivo, tumor cells can mediate adaptive resistance by up-regulating PD-L1 in response to interferon-gamma (IFNγ) released by the cytotoxic T lymphocytes within the tumor bed. Therefore, it was explored whether, in addition to up-regulating cellular PD-L1, IFNγ may increase the secretion of PD-L1. Treatment of cancer cells with IFNγ led to an increase in PD-L1 in both the cellular and 100 k g fractions. […] Thus, similar to the cell surface membrane PD-L1, extracellular vesicular PD-L1 increased in response to IFNγ.

In the case of `CO/C1=C\C(C)=C\[C@@H](C)[C@@H](O)[C@@H](C)C/C(C)=C/C=C/[C@H](OC)[C@@H]([C@@H](C)[C@@H](O)[C@H](C)[C@@]2(O)C[C@@H](O)[C@H](C)[C@@H](C(C)C)O2)OC1=O` [BafA1, Bafalomycin A1], the “protein LC3B, known target of the lysosome” value ([1]; PC3 and SK-MEL-28 cells) is reported as “increase” and the PD-L1 protein levels ([1]; PC3 and SK-MEL-28 cells) is reported as “unaltered”.

In the case of `CC(C)C[C@@H](C=O)NC(=O)[C@H](CC(C)C)NC(=O)[C@H](CC(C)C)NC(=O)OCc1ccccc1` [MG132] (Cbz-Leu-Leu-Leu-aldehyde), the “presence of ubiquitinated proteins” value ([1]; PC3 and SK-MEL-28 cells) is reported as “increase”, the PD-L1 protein levels ([1]; PC3 and SK-MEL-28 cells) is reported as “minimally affected” and the PD-L1 levels ([1]; SK-MEL-28 cells only, not PC3) is reported as “slightly up”.

For “interferon-gamma [IFNγ, interferon-gamma released by cytotoxic T lymphocytes]”, the “PD-L1 in both the cellular and 100 k g fractions” value [2] was “increase” and the “number of vesicles secreted” value [2] was “did not increase”.
